Measured values taken from patent US8530648B2, “Diaza-spiro[5.5]undecanes” (Novartis AG, priority 2009, dated 2013).

Experiments:
[1] = molecular target: T1, hOx1R (Homo sapiens (Human), UniProt O43613); assay: Radioligand binding assay, [125I]orexin A, hOx1R; settings: radioligand [125I]orexin A, competition
Protocol: (§1) For crude cell membrane preparations, cells (CHO, Chinese hamster ovary or HEK, human embryonic kidney) expressing human orexin 1 or human orexin 2 receptors, were washed with HEPES (10 mM, pH 7.5), scraped off the culture plates with the same buffer, and centrifuged at 4° C. for 5 min at 2500×g. The cell pellet was either stored at −80° C. or used directly. Before the experiments, cell membranes were re-suspended in binding assay buffer (10 mM HEPES, 0.5% (w/v) bovine serum albumin, pH 7.5) by homogenisation with a Polytron homogeniser at 50 Hz for 20 s. Cell membranes were also used as made available by commercial providers.
(§2) In initial saturation experiments (to calculate Bmax), cell homogenates (150 μl) were incubated with 25-300 pM of the radioligand ([^125I]orexin A, 50 μl), 8 concentrations in triplicates in the presence or absence Orexin A (1 μM, 50 μl) to define non specific binding. Bound radioactivity was measured, and data were analysed with the program XLFIT or Graphpad Prism. Protein concentration was determined according to the Bradford/BioRad Protein Assay Kit.
(§3) In competition experiments, cell homogenates (150 μl) were incubated in assay buffer (10 mM HEPES, pH 7.5, 0.5% (w/v) bovine serum albumin, 5 mM MgCl2, 1 mM CaCl2, and tween 0.05%) for 1 h at room temperature with about 100 pM of the radioligand ([^125I]orexin A, 2100 Ci/mmole, 50 μl), and with various concentrations of compounds of the invention (50 μl) in triplicates; non-specific binding was determined in the presence of Orexin A (1 μM). Reactions were terminated by vacuum filtration, 3 washes of ice cold wash buffer (Tris-HCl pH 7.4/10 mM, with NaCl 154 mM).

[2] = molecular target: T1, hOx1R; assay: Calcium accumulation in cells (FLIPR), hOx1R; type: cell-based; settings: for Ki: inhibition of orexin A induced calcium accumulation, Cheng and Prusoff correction
Outline: (§4)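 Cells expressing human orexin 1 or 2 receptor, serum-deprived overnight, loaded with Fluo-4-AM (2 μM) plus 0.1 mM probenecid, pH 7.4 HEPES buffer with 1% BSA.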

[3] = molecular target: T2, hOx2R (Homo sapiens (Human), UniProt O43614); assay: Calcium accumulation in cells (FLIPR), hOx2R; type: cell-based; settings: inhibition of orexin A induced calcium accumulation, Cheng and Prusoff correction
Outline: as §4

[4] = molecular target: T2, hOx2R; assay: Radioligand binding assay, [125I]orexin A, hOx2R; settings: radioligand [125I]orexin A, competition
Protocol: as §1, §2, §3

T1 sequence (O43613 whole entry): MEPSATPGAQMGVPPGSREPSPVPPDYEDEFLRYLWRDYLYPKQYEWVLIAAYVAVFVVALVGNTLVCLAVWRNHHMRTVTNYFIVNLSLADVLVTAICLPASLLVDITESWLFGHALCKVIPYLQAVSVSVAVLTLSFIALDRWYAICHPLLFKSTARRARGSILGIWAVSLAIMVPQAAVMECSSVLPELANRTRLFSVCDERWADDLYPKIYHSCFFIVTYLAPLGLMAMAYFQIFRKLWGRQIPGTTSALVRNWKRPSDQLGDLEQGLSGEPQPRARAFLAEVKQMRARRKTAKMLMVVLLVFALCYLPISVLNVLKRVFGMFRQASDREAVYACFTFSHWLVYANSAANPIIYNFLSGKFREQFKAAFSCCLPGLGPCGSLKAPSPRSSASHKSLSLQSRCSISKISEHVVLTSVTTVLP
T2 sequence (O43614 whole entry): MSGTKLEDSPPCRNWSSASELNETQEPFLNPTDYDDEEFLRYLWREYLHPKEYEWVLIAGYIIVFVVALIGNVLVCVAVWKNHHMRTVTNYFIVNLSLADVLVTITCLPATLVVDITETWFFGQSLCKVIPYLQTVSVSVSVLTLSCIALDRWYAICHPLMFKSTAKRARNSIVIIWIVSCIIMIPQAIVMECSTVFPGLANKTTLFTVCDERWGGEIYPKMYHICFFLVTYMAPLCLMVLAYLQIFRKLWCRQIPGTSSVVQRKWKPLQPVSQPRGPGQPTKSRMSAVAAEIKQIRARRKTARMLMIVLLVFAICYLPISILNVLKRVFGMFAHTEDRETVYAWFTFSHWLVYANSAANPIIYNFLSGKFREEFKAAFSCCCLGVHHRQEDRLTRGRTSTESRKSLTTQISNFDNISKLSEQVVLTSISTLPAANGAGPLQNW

Compound	Kd [1]	Ki [2]	Ki [3]	Kd [4]	inhibition at 10 µM ([2]; measured at a concentration of 10 μM of compound)
O=C1N(Cc2cccc(-c3ccccn3)c2)CCCC12CCN(c1cnc3ccccc3n1)CC2 [Example 54, 2-(3-(pyridin-2-yl)benzyl)-9-(quinoxalin-2-yl)-2,9-diazaspiro[5.5]undecan-1-one]	634 nM	420 nM	47 nM	175 nM	–
O=C1N(Cc2c[nH]c3ncccc23)CCCC12CCN(c1cnc3ccccc3n1)CC2 [Example 57, 2-((1H-pyrrolo[2,3-b]pyridin-3-yl)methyl)-9-(quinoxalin-2-yl)-2,9-diazaspiro[5.5]undecan-1-one]	959 nM	1030 nM	92 nM	159 nM	–
O=C1N(Cc2cccc(Cl)c2)CCCC12CCN(c1cnc3ccccc3n1)CC2 [Example 27, 2-(3-chlorobenzyl)-9-(quinoxalin-2-yl)-2,9-diazaspiro[5.5]undecan-1-one]	702 nM	740 nM	84 nM	169 nM	–
O=C1N(Cc2cccc3[nH]ccc23)CCCC12CCN(c1cnc3ccccc3n1)CC2 [Example 3, 2-((1H-indol-4-yl)methyl)-9-(quinoxalin-2-yl)-2,9-diazaspiro[5.5]undecan-1-one]	630 nM	474 nM	63 nM	130 nM	–
O=C1CCCC2(CCN(c3cnc4ccccc4n3)CC2)N1Cc1cccc2[nH]ccc12 [Example 38, 1-((1H-indol-4-yl)methyl)-9-(Quinoxalin-2-yl)-1,9-diazaspiro[5.5]undecan-2-one]	17 nM	13 nM	1 nM	7 nM	–
O=C1N(Cc2ccccc2C(F)(F)F)CCCC12CCN(c1cnc3ccccc3n1)CC2 [Example 23, 9-(quinoxalin-2-yl)-2-(2-(trifluoromethyl)benzyl)-2,9-diazaspiro[5.5]undecan-1-one]	4480 nM	2740 nM	280 nM	1090 nM	–
O=C1N(Cc2cccc(-c3cccnc3)c2)CCCC12CCN(c1cnc3ccccc3n1)CC2 [Example 5, 2-(3-(pyridin-3-yl)benzyl)-9-(quinoxalin-2-yl)-2,9-diazaspiro[5.5]undecan-1-one]	426 nM	83 nM	22 nM	98 nM	–
O=C1N(Cc2ccccc2)CCCC12CCN(c1nc3ccccc3[nH]1)CC2 [Example 10, 9-(1H-benzo[d]imidazol-2-yl)-2-benzyl-2,9-diazaspiro[5.5]undecan-1-one]	3360 nM	–	1070 nM	439 nM	0%
O=C1N(Cc2ccc3ccccc3c2)CCCC12CCN(c1cnc3ccccc3n1)CC2 [Example 7, 2-(naphthalen-2-ylmethyl)-9-(quinoxalin-2-yl)-2,9-diazaspiro[5.5]undecan-1-one]	> 10000 nM	–	–	9870 nM	–
O=C1N(Cc2ccc3c(c2)OCCO3)CCCC12CCN(c1cnc3ccccc3n1)CC2 [Example 25, 2-((2,3-dihydrobenzo[b][1,4]dioxin-6-yl)methyl)-9-(quinoxalin-2-yl)-2,9-diazaspiro[5.5]undecan-1-one]	5250 nM	–	–	3210 nM	–
O=C1N(Cc2ccc(C(F)(F)F)cc2)CCCC12CCN(c1cnc3ccccc3n1)CC2 [Example 24, 9-(quinoxalin-2-yl)-2-(4-(trifluoromethyl)benzyl)-2,9-diazaspiro[5.5]undecan-1-one]	> 10000 nM	–	–	5240 nM	–
O=C1N(Cc2cccc3cccnc23)CCCC12CCN(c1cnc3ccccc3n1)CC2 [Example 21, 2-(quinolin-8-ylmethyl)-9-(quinoxalin-2-yl)-2,9-diazaspiro[5.5]undecan-1-one]	3280 nM	1760 nM	213 nM	211 nM	–
Cn1c(N2CCC3(CCCN(Cc4cccc5ccccc45)C3=O)CC2)nc2ccccc21 [Example 12, 9-(1-methyl-1H-benzo[d]imidazol-2-yl)-2-(naphthalen-1-ylmethyl)-2,9-diazaspiro[5.5]undecan-1-one]	> 10000 nM	–	–	6100 nM	–
